Assay results taken from US20260078120A1, “SUBSTITUTED PYRIDOPYRIMIDINONES” (MIRATI THERAPEUTICS, INC., priority 2022, published 2026).
Like-named read-outs stand apart in the source and are kept apart here.

Tests used:
[1] = system: T47D (PI3Kα H1047R mutant) cells; experiment: CellTiter-Glo 2.0 luminescent cell viability assay, 72 hours, T47D cells; format: cell-based; conditions: T47D (PI3Kα H1047R mutant) cells, CellTiter-Glo, approximately 72 hours, read-out: T47D (H1047R mutant) Viability IC50
Outline: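 Cells seeded at 1000 per well overnight were dosed with a 10-concentration, 1:4 series starting at 10 µM and incubated ~72 h at 37° C. Viability was read by CellTiter-Glo 2.0 luminescence after 30 min at room temperature. IC50 came from four-parameter fits of percent vehicle control.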

[2] = system: SKBR3 (PI3Kα wild type) cells; experiment: CellTiter-Glo 2.0 luminescent cell viability assay, 72 hours, SKBR3 cells; format: cell-based; conditions: Homo sapiens, SK-BR-3, 72 h, SKBR3 (PI3Kα wild type) cells, CellTiter-Glo, approximately 72 hours; read-out: SKBR3 (WT) Viability IC50
Outline: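 Viability measured via CTG luminescence following roughly 72 hours of compound exposure at 37° C. Dosing used a 10 um starting concentration diluted 1:4 over 10 points; percent-of-vehicle data fitted with a variable-slope four-parameter model for IC50.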

Row | IC50 ([1]; Homo sapiens, T47D, 72 h) [µM] | IC50 [2] [µM] | IC50 [1] [µM] | SMILES
1 | 0.0123 | > 10 | – | CCOCC1CCN(c2nc3c([C@@H](C)Nc4ccccc4C(=O)O)cc(C)cn3c(=O)c2C)CC1 [Example 10-4, (R)-2-((1-(2-(4-(ethoxymethyl)piperidin-1-yl)-3,7-dimethyl-4-oxo-4H-pyrido[1,2-a]pyrimidin-9-yl)ethyl)amino)benzoic acid]
2 | 0.166 | > 10 | – | Cc1cc([C@@H](C)Nc2ccccc2C(=O)O)c2nc(O[C@@H]3CCOC3)c(C)c(=O)n2c1 [Example 11-245, 2-(((R)-1-(3,7-dimethyl-4-oxo-2-(((R)-tetrahydrofuran-3-yl)oxy)-4H-pyrido[1,2-a]pyrimidin-9-yl)ethyl)amino)benzoic acid]
3 | 0.721 | > 10 | – | Cc1cc([C@@H](C)Nc2ccccc2C(=O)O)c2nc(N3Cc4ccccc4C3CO)c(C#N)c(=O)n2c1 (stereo partly drawn) [Example 11-288, 2-(((1R)-1-(3-cyano-2-(1-(hydroxymethyl)isoindolin-2-yl)-7-methyl-4-oxo-4H-pyrido[1,2-a]pyrimidin-9-yl)ethyl)amino)benzoic acid]
4 | – | > 10 | 0.946 | Cc1cc([C@@H](C)Nc2ccc(F)nc2C(=O)O)c2nc(N3Cc4ccccc4C3)c(C)c(=O)n2c1 [Example 11-351, (R)-6-fluoro-3-((1-(2-(isoindolin-2-yl)-3,7-dimethyl-4-oxo-4H-pyrido[1,2-a]pyrimidin-9-yl)ethyl)amino)picolinic acid]
5 | 0.268 | > 10 | – | Cc1cc([C@@H](C)Nc2ccccc2C(=O)O)c2nc(N3CCC(F)(F)C[C@H]3C)c(C)c(=O)n2c1 [Example 11-93, 2-(((R)-1-(2-((R)-4,4-difluoro-2-methylpiperidin-1-yl)-3,7-dimethyl-4-oxo-4H-pyrido[1,2-a]pyrimidin-9-yl)ethyl)amino)benzoic acid]
6 | 0.342 | > 10 | – | Cc1cc([C@@H](C)Nc2ccccc2C(=O)O)c2nc(NCC3CC3)c(C)c(=O)n2c1 [Example 11-207, (R)-2-((1-(2-((cyclopropylmethyl)amino)-3,7-dimethyl-4-oxo-4H-pyrido[1,2-a]pyrimidin-9-yl)ethyl)amino)benzoic acid]
7 | 7.9 | > 10 | – | Cc1cc([C@@H](C)Nc2ccccc2C(=O)O)c2nc(Cl)c(C#N)c(=O)n2c1 [Example 11-243, (R)-2-((1-(2-chloro-3-cyano-7-methyl-4-oxo-4H-pyrido[1,2-a]pyrimidin-9-yl)ethyl)amino)benzoic acid]
8 | 2.58 | 3.96 | – | C[C@@H](Nc1ccccc1C(=O)O)c1cc(C2CC2)cn2c(=O)c(C#N)c(N3Cc4ccccc4C3)nc12 [Example 11-326, (R)-2-((1-(3-cyano-7-cyclopropyl-2-(isoindolin-2-yl)-4-oxo-4H-pyrido[1,2-a]pyrimidin-9-yl)ethyl)amino)benzoic acid]
9 | 0.0505 | > 10 | – | C[C@@H](Nc1ccccc1C(=O)O)c1cc(Cl)cn2c(=O)c(C#N)c(N3CCC(F)(F)CC3)nc12 [Example 10-26, (R)-2-((1-(7-chloro-3-cyano-2-(4,4-difluoropiperidin-1-yl)-4-oxo-4H-pyrido[1,2-a]pyrimidin-9-yl)ethyl)amino)benzoic acid]
10 | 0.0747 | > 10 | – | Cc1cc(C(C)Nc2ccc(F)nc2C(=O)O)c2nc(N3Cc4ccccc4C3)c(C)c(=O)n2c1 (stereo not shown) [Example 11-352, 6-fluoro-3-((1-(2-(isoindolin-2-yl)-3,7-dimethyl-4-oxo-4H-pyrido[1,2-a]pyrimidin-9-yl)ethyl)amino)picolinic acid]
11 | > 10 | > 10 | – | Cc1cc(C(C)NCCC(=O)O)c2nc(N3CCCCC3)cc(=O)n2c1 (stereo not shown) [Example 11-386]
12 | 0.871 | > 10 | – | Cc1cc([C@@H](C)Nc2ccccc2C(=O)O)c2nc(N3CC(c4cc(C(F)(F)F)on4)C3)c(C)c(=O)n2c1 [Example 11-442, (R)-2-((1-(3,7-dimethyl-4-oxo-2-(3-(5-(trifluoromethyl)isoxazol-3-yl)azetidin-1-yl)-4H-pyrido[1,2-a]pyrimidin-9-yl)ethyl)amino)benzoic acid]
13 | 0.116 | > 10 | – | Cc1cc([C@@H](C)Nc2ccccc2C(=O)O)c2nc(C3CC3)c(C#N)c(=O)n2c1 [Example 11-244, (R)-2-((1-(3-cyano-2-cyclopropyl-7-methyl-4-oxo-4H-pyrido[1,2-a]pyrimidin-9-yl)ethyl)amino)benzoic acid]
14 | 0.159 | > 10 | – | Cc1cc([C@@H](C)Nc2ccccc2C(=O)O)c2nc(N3CC(F)(F)[C@H]3C)c(C)c(=O)n2c1 [Example 11-96, 2-(((R)-1-(2-((R)-3,3-difluoro-2-methylazetidin-1-yl)-3,7-dimethyl-4-oxo-4H-pyrido[1,2-a]pyrimidin-9-yl)ethyl)amino)benzoic acid]
15 | > 10 | > 10 | – | Cc1cc([C@@H](C)Nc2ccccc2C(=O)O)c2nc(N3CCNC(=O)C3)c(C#N)c(=O)n2c1 [Example 11-284, (R)-2-((1-(3-cyano-7-methyl-4-oxo-2-(3-oxopiperazin-1-yl)-4H-pyrido[1,2-a]pyrimidin-9-yl)ethyl)amino)benzoic acid]
16 | 0.192 | > 10 | – | Cc1cc([C@@H](C)Nc2ccccc2C(=O)O)c2nc(N3C[C@@H]4C[C@H]3CC4(F)F)c(C)c(=O)n2c1 [Example 11-231, 2-(((R)-1-(2-((1S,4S)-5,5-difluoro-2-azabicyclo[2.2.1]heptan-2-yl)-3,7-dimethyl-4-oxo-4H-pyrido[1,2-a]pyrimidin-9-yl)ethyl)amino)benzoic acid]
17 | 0.0801 | > 10 | – | Cc1cc([C@@H](C)Nc2ccccc2C(=O)O)c2nc(N3CCC(c4ccccn4)C3)c(C)c(=O)n2c1 (stereo partly drawn) [Example 10-142, 2-(((1R)-1-(3,7-dimethyl-4-oxo-2-(3-(pyridin-2-yl)pyrrolidin-1-yl)-4H-pyrido[1,2-a]pyrimidin-9-yl)ethyl)amino)benzoic acid]
18 | 0.053 | > 10 | – | CO[C@@H]1CCN(c2nc3c([C@@H](C)Nc4ccccc4C(=O)O)cc(C)cn3c(=O)c2C)CC1(F)F [Example 10-28, 2-(((R)-1-(2-((R)-3,3-difluoro-4-methoxypiperidin-1-yl)-3,7-dimethyl-4-oxo-4H-pyrido[1,2-a]pyrimidin-9-yl)ethyl)amino)benzoic acid]
19 | 1.29 | > 10 | – | Cc1cc([C@@H](C)Nc2ccccc2C(=O)O)c2nc(N3CCN(C(=O)c4ccccc4)CC3)c(C#N)c(=O)n2c1 [Example 11-263, (R)-2-((1-(2-(4-benzoylpiperazin-1-yl)-3-cyano-7-methyl-4-oxo-4H-pyrido[1,2-a]pyrimidin-9-yl)ethyl)amino)benzoic acid]
20 | 0.108 | > 10 | – | Cc1cc([C@@H](C)Nc2ccccc2C(=O)O)c2nc(N3CC45COCC4(COC5)C3)c(C)c(=O)n2c1 (stereo partly drawn) [Example 10-148, 2-(((R)-1-(2-((3aS,6aS)-1H,3H,4H-3a,6a-(methanooxymethano)furo[3,4-c]pyrrol-5(6H)-yl)-3,7-dimethyl-4-oxo-4H-pyrido[1,2-a]pyrimidin-9-yl)ethyl)amino)benzoic acid]
21 | 0.168 | > 10 | – | Cc1cc([C@@H](C)Nc2ccc(F)cc2C(=O)O)c2nc(N3CCCCC3)c(C#N)c(=O)n2c1 [Example 11-293, (R)-2-((1-(3-cyano-7-methyl-4-oxo-2-(piperidin-1-yl)-4H-pyrido[1,2-a]pyrimidin-9-yl)ethyl)amino)-5-fluorobenzoic acid]
22 | 0.651 | > 10 | – | Cc1cc([C@@H](C)Nc2ccccc2C(=O)O)c2nc(NC3CCC3)c(C)c(=O)n2c1 [Example 11-99, (R)-2-((1-(2-(cyclobutylamino)-3,7-dimethyl-4-oxo-4H-pyrido[1,2-a]pyrimidin-9-yl)ethyl)amino)benzoic acid]
23 | 2.74 | > 10 | – | Cc1cc(C(C)Nc2ccccc2C(=O)O)c2nc(N3CCN(C(=O)C4CC4)CC3)cc(=O)n2c1 (stereo not shown) [Example 11-336, 2-((1-(2-(4-(cyclopropanecarbonyl)piperazin-1-yl)-7-methyl-4-oxo-4H-pyrido[1,2-a]pyrimidin-9-yl)ethyl)amino)benzoic acid]
24 | 0.123 | > 10 | – | Cc1cc([C@@H](C)Nc2ccccc2C(=O)O)c2nc(N3CCN(c4cn(C)nc4C#N)CC3)c(C)c(=O)n2c1 [Example 11-185, (R)-2-((1-(2-(4-(3-cyano-1-methyl-1H-pyrazol-4-yl)piperazin-1-yl)-3,7-dimethyl-4-oxo-4H-pyrido[1,2-a]pyrimidin-9-yl)ethyl)amino)benzoic acid]

Row | SMILES | IC50 ([1]; Homo sapiens, T47D, 72 h) [µM] | IC50 [2] [µM] | IC50 [1] [µM]
25 | Cc1cc([C@@H](C)Nc2ccccc2C(=O)O)c2nc(N3C4CCC3CN(c3ccc(C#N)cc3)C4)c(C#N)c(=O)n2c1 [Example 11-182, 2-(((1R)-1-(3-cyano-2-(3-(4-cyanophenyl)-3,8-diazabicyclo[3.2.1]octan-8-yl)-7-methyl-4-oxo-4H-pyrido[1,2-a]pyrimidin-9-yl)ethyl)amino)benzoic acid] | 0.239 | > 10 | –
26 | Cc1cc([C@@H](C)Nc2ccccc2C(=O)O)c2nc(N3C4CNCC3C4)c(C)c(=O)n2c1 [Example 11-180, 2-(((1R)-1-(2-(3,6-diazabicyclo[3.1.1]heptan-6-yl)-3,7-dimethyl-4-oxo-4H-pyrido[1,2-a]pyrimidin-9-yl)ethyl)amino)benzoic acid] | > 10 | > 10 | –
